Assay results: paper PMC10454575, “A Novel Aniline Derivative from Peganum harmala L. Promoted Apoptosis via Activating PI3K/AKT/mTOR-Mediated Autophagy in Non-Small Cell Lung Cancer Cells” (International Journal of Molecular Sciences, 2023)

Molecular target: T1, CD133 (Homo sapiens, UniProt O43490)
T1 construct: gene PROM1
T1 sequence (O43490 20-865): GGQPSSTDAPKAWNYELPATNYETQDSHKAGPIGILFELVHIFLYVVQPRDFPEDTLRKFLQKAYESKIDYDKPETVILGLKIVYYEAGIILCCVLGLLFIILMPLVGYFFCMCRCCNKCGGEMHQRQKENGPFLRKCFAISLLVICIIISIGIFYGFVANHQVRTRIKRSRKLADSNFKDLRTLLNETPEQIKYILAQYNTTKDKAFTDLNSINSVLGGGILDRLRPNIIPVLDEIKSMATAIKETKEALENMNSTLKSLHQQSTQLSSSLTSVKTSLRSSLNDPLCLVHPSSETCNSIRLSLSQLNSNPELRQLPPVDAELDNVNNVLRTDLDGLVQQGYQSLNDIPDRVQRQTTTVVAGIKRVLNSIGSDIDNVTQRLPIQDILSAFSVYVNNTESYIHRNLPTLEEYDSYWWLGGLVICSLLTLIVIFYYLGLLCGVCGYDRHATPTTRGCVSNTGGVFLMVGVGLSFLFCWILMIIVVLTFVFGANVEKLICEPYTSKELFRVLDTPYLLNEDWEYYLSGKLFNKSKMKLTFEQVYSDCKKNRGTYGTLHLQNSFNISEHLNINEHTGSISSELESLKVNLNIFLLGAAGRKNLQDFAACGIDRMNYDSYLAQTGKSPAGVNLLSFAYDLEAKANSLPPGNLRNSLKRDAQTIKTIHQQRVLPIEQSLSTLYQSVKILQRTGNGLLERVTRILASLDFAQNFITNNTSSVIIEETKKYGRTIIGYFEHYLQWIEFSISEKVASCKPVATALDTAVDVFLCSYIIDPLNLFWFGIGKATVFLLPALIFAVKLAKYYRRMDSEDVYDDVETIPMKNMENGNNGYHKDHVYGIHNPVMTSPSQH
Assay: surface plasmon resonance (SPR), single-site fit, […] PA
Type: binding

- Kd: 7.25 µM
SMILES: COc1ccc(C(=O)CCNC(C)=O)c(N)c1 [PA, pegaharoline A]
